The test system of one assay is IL-12. As to the kind of experiment: Inhibition of IL-12 production by mouse peritoneal macrophages (ELISA). In kind it is cell-based, mice. The note with it: Macrophage, read-out: Inhibitory rate (%) IL-12; for inhibition at 10 µg/mL: 10 μg/ml; for inhibition at 50 µg/mL: 50 μg/ml; for inhibition at 100 µg/mL: 100 μg/ml; for inhibition at 1 µg/mL: 1 μg/ml; for inhibition at 5 µg/mL: 5 μg/ml; for inhibition at 10 µM: 10 μM/L. The procedure: (§1) C57BL/6CrSlc male mice were intraperitoneally injected with 2.0 ml of 3% Brewer tioglycolate medium. Three days later, macrophages were collected from the abdominal cavity with 5.0 ml Hank's balanced salt solution, and then equally divided into each well of a 48-well plate using RPMI 1640 medium supplemented with 10% FBS (Fetal Bovine Serum), followed by incubation in a CO2 incubator for 1 hour. After the macrophages adhered to the walls of the plate, they were incubated for 48 hours in the presence of a test compound with different concentrations. Following the incubation, the supernatant was collected from each well, assayed for IL-6, IL-10 and L-12 by ELISA to determine inhibitory rates against the production of these interleukins.
(ELISA stands for enzyme-linked immunosorbent assay.)

Another assay has as its system IL-6. In words: Inhibition of IL-6 production by mouse peritoneal macrophages (ELISA). In kind it is cell-based, mice. The note with it: Macrophage, 48 hours, read-out: Inhibitory rate (%) IL-6; for inhibition at 10 µg/mL: 10 μg/ml; for inhibition at 50 µg/mL: 50 μg/ml; for inhibition at 100 µg/mL: 100 μg/ml; for inhibition at 1 µg/mL: 1 μg/ml; for inhibition at 5 µg/mL: 5 μg/ml. The procedure: as §1

Another assay has as its system IL-10. As to the kind of experiment: Inhibition of IL-10 production by mouse peritoneal macrophages (ELISA). The note with it: Macrophage, 48 hours, read-out: Inhibitory rate (%) IL-10; for inhibition at 10 µg/mL: 10 μg/ml; for inhibition at 50 µg/mL: 50 μg/ml; for inhibition at 100 µg/mL: 100 μg/ml; for inhibition at 1 µg/mL: 1 μg/ml; for inhibition at 5 µg/mL: 5 μg/ml. In kind it is cell-based, mice. The procedure: as §1

Assay [1] concerns Rats with Minimal Change Nephrosis. In words: Inhibitory effects on urinary proteins in rats with minimal change nephrosis (Puromycin Aminonucleoside). In kind it is in vivo. The note with it: S.D. male rats, PA 50 mg/kg i.v., test drug 2 mg/kg/day from day 6 to day 11, assayed at day 11. The procedure:
Six week old S.D. male rats were intravenously injected with Puromycin Aminonucleoside (PA; SIGMA)at a dose of 50 mg/kg so as to develop nephrosis. Six days after PA treatment, the rats were administered with a test drug at a dose of 2 mg/kg/day by day 11. Each rat was assayed for an excreted urinary protein level at day 11 to determine an inhibitory rate.

Another assay deals with T1, Thromboxane A2 Synthase (Rattus norvegicus, UniProt P49430).
T1 construct: centrifuged at 1,300 rpm for 7 minutes to obtain platelet rich plasma (PRP); from tissue; host or cells: platelet rich plasma (washed platelets) from the abdominal aorta blood of Sprague-Dawley rats
T1 sequence (P49430 1-533): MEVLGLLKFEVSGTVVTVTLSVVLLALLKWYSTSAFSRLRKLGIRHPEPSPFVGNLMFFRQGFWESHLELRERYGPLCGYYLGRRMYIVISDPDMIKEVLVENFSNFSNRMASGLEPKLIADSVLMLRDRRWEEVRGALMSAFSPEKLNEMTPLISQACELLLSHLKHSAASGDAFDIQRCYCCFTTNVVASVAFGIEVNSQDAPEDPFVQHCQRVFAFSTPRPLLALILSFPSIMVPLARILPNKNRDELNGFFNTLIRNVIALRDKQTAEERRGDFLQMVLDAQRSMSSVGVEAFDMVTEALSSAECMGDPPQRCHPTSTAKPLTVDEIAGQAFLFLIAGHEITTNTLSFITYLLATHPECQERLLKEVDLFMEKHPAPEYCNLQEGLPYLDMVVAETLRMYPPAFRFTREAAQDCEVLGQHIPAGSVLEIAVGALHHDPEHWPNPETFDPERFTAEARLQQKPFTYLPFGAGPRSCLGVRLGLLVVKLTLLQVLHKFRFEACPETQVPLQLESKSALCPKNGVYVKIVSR
In words: Inhibitory effect on thromboxane A2 synthase: TXB2 in rat platelet rich plasma. In kind it is cell-based, rats. The note with it: 10 μmol/l, rat PRP. The procedure:
Eight week old Sprague-Dawley male rats were used in this example. The rats were anesthetized with pentobarbital sodium. The blood was collected from the abdominal aorta using a heparinized syringe, and centrifuged at 1,300 rpm for 7 minutes to obtain platelet rich plasma (PRP). PRP was suspended in an equivalent volume of a buffer containing 25 mmol/l Tris-HCl, 130 mmol/l sodium chloride and 0.3 mmol/l EDTA (pH 7.4)(buffer A), followed by centrifugation at 4° C., at 1,500 rpm for 5 minutes. This procedure was repeated twice, and PRP was finally suspended in a buffer containing 25 mmol/l Tris-HCl, 130 mmol/l, 0.1% glucose and 0.1% albumin (pH7.4)(buffer B).
5×10^6 cells/mm^3 PRP preparation in buffer B was divided into each well of a 96-well plate in an amount of 150 μl/well. Each test substance was prepared at a final concentration of 10 μmol/l and added to the PRP preparation in an amount of 50 μl/well. Immediately after addition of the test substance, 5 μl of an aggregation-inducing agent, type IV collagen (1 mg/ml) or arachidonic acid (50 mmol/l), was added and incubated for 10 minutes. 20 μl of an EDTA-indomethacin solution was added to the each well to stop the reaction. The supernatant was assayed for thromboxane B2 (TXB2), stable metabolite of thromboxane A2 (TXA2), using a TXB2 measurement kit (Cayman).

The mark [2] stands for this setting: arachidonic acid, 10 minutes, read-out: TXB2 induced by arachidonic acid (Inhibitory rate; %).
Setting [3] is: type IV collagen, 10 minutes, read-out: TXB2 induced by collagen (Inhibitory rate; %).
The mark [4] stands for this setting: summary of Table 3, read-out: inhibitory activity against TXA2 production mediated by collagen or arachidonate.

Like-named read-outs stand apart in the source and are kept apart here.

With `CCOC(=O)COc1ccc(/C=C/C(=O)N(C)Cc2cccnc2)cc1` [Example 2, Ethyl [4-[(E)-2-[N-Methyl-N-(3-pyridylmethyl)carbamoyl]ethenyl]phenoxy]-acetate], in the assay on IL-12 (48 hours), the inhibition at 10 µg/mL worked out at 35%, the inhibition at 50 µg/mL turned out to be 63.8% and the inhibition at 100 µg/mL was 65.4%. Further, in the assay on IL-6, the inhibition at 10 µg/mL amounted to 58.8%, the inhibition at 50 µg/mL was determined as 78.9% and the inhibition at 100 µg/mL stood at 88%. In the assay with IL-10, the inhibition at 10 µg/mL was determined as 27.8%, the inhibition at 50 µg/mL worked out at 51.4% and the inhibition at 100 µg/mL was determined as 50%.
Consider `COC(=O)COc1ccc(/C=C/C(=O)NCc2cccnc2)cc1` [Example 7, methyl [4-[(E)-2-[N-(3-pyridylmethyl)carbamoyl]ethenyl]phenoxy]acetate], for which, in the assay on IL-12 (48 hours), the inhibition at 1 µg/mL was determined as 28.4%, the inhibition at 5 µg/mL is 40.1% and the inhibition at 10 µg/mL amounted to 52.5%. In the assay with IL-6, the inhibition at 1 µg/mL worked out at 13.5%, the inhibition at 5 µg/mL was 31.5% and the inhibition at 10 µg/mL turned out to be 32.5%. Moreover, in the assay on IL-10, the inhibition at 1 µg/mL was determined as 17.9%, the inhibition at 5 µg/mL worked out at 1.3% and the inhibition at 10 µg/mL stood at 25.4%. The “Inhibitory rate (%) of excreted urinary protein level” value (“Inhibitory rate (%)” below) in assay [1] is 50%.
As for `CCOC(=O)COc1ccc(/C=C/C(=O)NCCc2cccnc2)cc1` [Example 10], in the assay on IL-12 (48 hours), the inhibition at 10 µg/mL was 30.3%, the inhibition at 50 µg/mL is 27.8% and the inhibition at 100 µg/mL is 35%. In the assay on IL-6, the inhibition at 10 µg/mL was 61.2%, the inhibition at 50 µg/mL was 63.5% and the inhibition at 100 µg/mL stood at 61.6%. In the assay on IL-10, the inhibition at 10 µg/mL is 29.5%, the inhibition at 50 µg/mL was 33.3% and the inhibition at 100 µg/mL came to 27.8%. Moreover, the “Inhibitory rate (%)” value in assay [1] amounted to 56%.
For the compound `COC(=O)COc1ccc(/C=C/C(=O)NCCc2ccccn2)cc1` [Example 16], the values for the inhibition at 1 µg/mL in the assay on IL-12 (48 hours), with IL-6 and in the assay on IL-10 were 31.4%, 26.1% and 49.9%, respectively. Besides, the inhibition at 5 µg/mL in the assay on IL-12 (48 hours) came to 47.4%; with IL-6 it was 41.3%; in the assay on IL-10, 50.1%. Moreover, the values for the inhibition at 10 µg/mL in the assay with IL-12 (48 hours), in the assay on IL-6 and in the assay on IL-10 were 40.3%, 79% and 34.9%, respectively. In assay [1], the “Inhibitory rate (%)” value came out at 42%.
As for `COC(=O)COc1ccc(/C=C/C(=O)NCc2ccccn2)cc1` [Example 29], the inhibition at 10 µg/mL in the assay on IL-12 (48 hours) is 37.6%; in the assay with IL-6 it was -9.5%; with IL-10, -25.7%.
Regarding `COC(=O)COc1ccc(/C=C/C(=O)NCCc2ccncc2)cc1` [Example 30], the inhibition at 10 µg/mL in the assay with IL-12 (48 hours) is 71.7%; with IL-6, 58.8%; with IL-10, -38.9%.
Regarding `O=C(O)COc1ccccc1/C=C/C(=O)NCc1cccnc1` [Example 37], the inhibition at 10 µM at Thromboxane A2 Synthase (setting [2]) and at Thromboxane A2 Synthase (setting [3]) was 26% in each case.
Regarding `NC(=O)COc1ccc(/C=C/C(=O)NCc2cccnc2)cc1` [Example 41], the inhibition at 10 µM came to 36% at Thromboxane A2 Synthase (setting [2]) and 14% on Thromboxane A2 Synthase (setting [3]).
For the compound `O=C(/C=C/c1ccccc1OCC(=O)NO)NCc1cccnc1` [Example 53], the inhibition at 10 µM on Thromboxane A2 Synthase (setting [2]) is 56%; at Thromboxane A2 Synthase (setting [3]), 43%; on Thromboxane A2 Synthase (setting [4]), not below 50%.
As for `CNC(=S)COc1ccccc1/C=C/C(=S)NCc1cccnc1` [Example 65, (E)-3-[2-[[N-(Methyl)thiocarbamoyl]methoxy]phenyl]-N-(3-pyridylmethyl)-2-propenoic Acid Thioamide], the inhibition at 10 µM on Thromboxane A2 Synthase (setting [2]) was 23%; at Thromboxane A2 Synthase (setting [3]) it was 12%.
As for `CN(Cc1cccnc1)C(=O)/C=C/c1ccc(OCC(=O)O)cc1` [Example 72], the inhibition at 10 µM on Thromboxane A2 Synthase (setting [2]) is 61%; at Thromboxane A2 Synthase (setting [3]), 46%; on Thromboxane A2 Synthase (setting [4]), not below 50%.
`O=C(O)COc1ccc(/C=C/C(=O)NCCc2ccccn2)cc1` [Example 73]: the inhibition at 10 µM was determined as 23% on Thromboxane A2 Synthase (setting [2]) and 47% on Thromboxane A2 Synthase (setting [3]).
`O=C(/C=C/c1ccc(OC(F)(F)C(=O)O)cc1)NCc1cccnc1` [Example 74]: in the assay on IL-12 (48 hours), the inhibition at 10 µM amounted to 51.1%.
Turning to `COC(=O)/C=C/c1ccc(/C=C/C(=O)NCc2cccnc2)cc1` [Example 76], in the assay on IL-12 (48 hours), the inhibition at 10 µM turned out to be 50%.
Take `COC(=O)CCc1ccc(/C=C/C(=O)NCCc2ccccn2)cc1` [Example 78]: in the assay on IL-12 (48 hours), the inhibition at 10 µM is 49.2%.
For the compound `O=C(O)CCc1ccc(/C=C/C(=O)NCCc2ccccn2)cc1` [Example 79], the inhibition at 10 µM in the assay with IL-12 (48 hours) came out at 43%.
For the compound `COC(=O)CC(O)c1ccc(/C=C/C(=O)NCc2cccnc2)cc1` (stereo not shown) [Example 80, methyl 3-hydroxy-3-[4-[2-[N-(3-pyridylmethyl)carbamoyl]ethenyl]phenyl]propionate], the inhibition at 10 µM with IL-12 (48 hours) came to 52.3%.
For `CCOC(=O)COc1ccc(/C=C(\C#N)C(=O)NCc2cccnc2)cc1` [Example 81, Ethyl [4-[2-Cyano-2-[N-(3-pyridylmethyl)carbamoyl]ethenyl]phenoxy]acetate], in the assay on IL-12 (48 hours), the inhibition at 10 µM is 41%.
With `N#C/C(=C\c1ccc(OCC(=O)O)cc1)C(=O)NCc1cccnc1` [Example 82, Sodium [4-[2-Cyano-2-[N-(3-pyridylmethyl)carbamoyl]ethenyl]phenoxy]acetate], the inhibition at 10 µM in the assay on IL-12 (48 h) was 30.7%.
For the compound `N#C/C(=C\c1ccc(OCC(=O)O)cc1)C(=O)NCc1cccnc1` [Example 83, [4-[2-Cyano-2-[N-(3-pyridylmethyl)carbamoyl]ethenyl]phenoxy]acetic Acid], the inhibition at 10 µM in the assay with IL-12 (48 hours) was found to be 40.9%.
For `CN(C)C(=O)COc1ccc(/C=C(\C#N)C(=O)NCc2cccnc2)cc1` [Example 84], the inhibition at 10 µM with IL-12 (48 hours) was found to be 38.9%.
Same read-out and setting: to `CCOC(=O)COc1ccc(/C(C)=C/C(=O)NCc2cccnc2)cc1` [Example 85, Ethyl [4-[(E)-1-Methyl-2-[N-(3-Pyridylmethyl)carbamoyl]ethenyl]phenoxy]acetate] belongs 47.4%.
With `O=C(O)CNc1ccc(/C=C/C(=O)NCc2cccnc2)cc1` [Example 88, [[4-[(E)-2-[N-(3-Pyridylmethyl)carbamoyl]ethenyl]phenyl]amino]acetic Acid], the inhibition at 10 µM with IL-12 (48 hours) came to 26.4%.

Source of the values: patent US6413995B1, “Cinnamamide derivatives and drug compositions containing the same” (Tsumura & Co., priority 1999, dated 2002).
